Measured values from patent publication EP1233748B1, “RETINALDEHYDE COMBINATION WITH ANTIFUNGAL ACTIVITY” (Pierre Fabre Dermo-Cosmetique, priority 1999, dated 2001).

Assays:
Assay type in all cases: cell-based
[1] = system: Malassézia furfur IP 1363-82; Malassezia furfur sauvage; experiment: Combination study, checkerboard method on microplate, CMF in association and FIC Index; settings: for CMF % Associés: product in association (Rétinal + Ald. C11), checkerboard, 32°C
Experimental: (§1) *souche : Malassézia furfur IP 1363-82 Malassezia furfur sauvage collecté auprès d'un pityriasis versicolor chez un patient hospitalisé au Centre Hospitalier Régional de Toulouse Rangueil (France). *milieu de culture : Dixon modifié (sous forme de bouillon et sous forme gélosée par ajout d'agar) *appareillage : microplaques stériles Nunc ® Nunclon à 96 puits eau distillée stérile tubes à essais stériles étuve à 32°C spectrophotomètre et cuves adaptées billes de verre stériles *produits : les solutions-mères des produits cités ci-dessous ont été préparés comme suit : • Trans rétinal :solution à 1% dans 20% d'éthanol 95 complétée avec de l'eau distillée stérile. • undécanal :solution à 1% dans 10% de Tween 80 complétée par de l'eau distillée stérile.
Des solutions-mères comme décrites précédemment égales à deux fois la CMF sont réalisées. La méthode de l'échiquier rapportée sur microplaque est utilisée pour croiser les séries de dilution au demi de chaque actif. Après ensemencement et incubation à 32°C, on procède à la lecture des CMF. Un repérage des CMF donnant lieu à des synergies peut alors se faire. Nous obtenons après calcul des FIC Index le tableau suivant :
La synergie peut être mise en évidence par le calcul des Index FIC (Fractional Inhibitory Concentration) des produits. Pour cela, on mesure la valeur de la CMF (ou Concentration Minimale Fongistatique) des principes actifs à tester vis-à-vis d'un type de germe.
Le FIC d'un produit A est défini comme : FICA =(CMF du produit A en association)/(CMF du produit A seul) [formula]
L'association de deux antifongiques A et B est synergique si la somme FIC des rapports (FICA et FICB) est inférieure ou égale à 0,75.
Plus la valeur FIC est faible, plus la synergie est importante.
On considère qu'il y a simple additivité pour des valeurs de FIC comprises entre 0,75 et 1,1 et indifférente dans l'intervalle compris entre 1,1 et 2; au-delà, l'association est notée antagoniste.

Malassezia = experiment: Antifungal activity on Malassezia, general statements in the description; settings: alone
[2] = system: Malassézia furfur IP 1363-82; Malassezia furfur sauvage; experiment: Determination of the minimal fungistatic concentration (CMF), serial two-fold dilution in Dixon broth in microplates; settings: product alone, 32°C, 48 to 72 h
Experimental: as §1
• une distribution de 100µl de bouillon Dixon est réalisée dans chaque cupule de la microplaque stérile. • une distribution de 100µl des différents produits a lieu dans une cupule, une cupule par produit (on est alors à 50% d'actif). • une série de dilutions sériées au demi est ensuite réalisée contre un témoin stérilité du milieu de culture et un autre témoin de la vigueur de la souche.
L'ensemencement de la microplaque a lieu sous atmosphère stérile après préparation de l'inoculum fongique comme suit : […]

SMILES	CMF % Associés [1]	FIC Index ([1]; sum of FIC for the association Rétinal + Ald. C11, synergy if <= 0,75)	action sur les levures telles Malassezia (Malassezia)	CMF % Seuls [2]
CCCCCCCCCCC=O [Ald. C11, undécanal]	0,0001 – 0,03%			
CC1=C(/C=C/C(C)=C/C=C/C(C)=C/C=O)C(C)(C)CCC1 [Rétinal, Trans rétinal]	0,06 – 0,25%	0,51 à 0,75	ne possède pas d'action notoire	0,25 – 0,5%
